Laboratory results: US20130131029A1, “ANTISOLVENT SOLIDIFICATION PROCESS” (MSD Oss B.V., priority 2005, published 2013)
Values belong to the molecule of their own block, whether it stands above or below them.

How the values were obtained:
[1] = Crystal size distribution (CSD) by laser diffraction (Mastersizer 2000, Fraunhofer model); assay type: physicochemical
[2] = as above; assay type: physicochemical; remark: listed apart in the source
Source text: The solid, preferably crystalline, particles obtainable by a process as described above advantageously have a high purity and, furthermore, a narrow particle size range, such as were not obtainable by prior art processes. The span, defined as (d90-d10)/d50, wherein d50, d10, and d90 can be understood to mean that 50%, 10%, and 90%, respectively, of the particles having a particle size smaller than or equal to the indicated value as determined by conventional laser diffraction technique, can even be below 1.4, which is exceptional for a solidification process such as a crystallisation process. In general, for the process according to the present invention the span preferably is below 3. More preferably, the span is below 2.5, and most preferably below 2.
The following procedure was applied for the production of sodium chloride crystals using the antisolvent crystallisation process according to the present invention. All experiments were performed at ambient conditions. The resulting crystals were analysed by SEM (Scanning Electron Microscopy) and CSD (Crystal Size Distribution) measurements by means of laser diffraction using a Mastersizer 2000 apparatus of Malvern Instruments with a Fraunhofer model for data analysis.
The following procedure was applied for the production of 3-ketodesogestrel using the antisolvent crystallisation of the present invention. All experiments were performed at ambient conditions. The resulting crystals were analysed using CSD measurements that were measured via conventional laser diffraction technique.
A 3-ketodesogestrel solution was prepared of 97 g 3-ketodesogestrel in 5 l of ethanol. Water was used as antisolvent. For dosing, a Microdyn® type SE020TP1N membrane with an average pore size of 1 μm was used. The 3-ketodesogestrel solution was dosed from the outside of the membrane to the antisolvent on the inside of the membrane. The speed of the antisolvent was set to 45 l/hr. The speed of the 3-ketodesogestrel flow was set to 0.41 l/hr. Again, a gear pump was used to control the velocities. The crystals thus obtained were collected using filtration, washed with 100% ethanol, and subsequently dried in an oven. […] The span was determined to be 1.7. Herein d50, d10; and d90 can be understood to mean that 50%, 10%, and 90%, respectively, of the particles have a particle size smaller than or equal to the indicated value.
The following procedure was applied for the production of progesteron. All experiments were performed at ambient conditions. The resulting crystals were analysed by CSD measurements by means of laser diffraction using a Mastersizer 2000 apparatus of Malvern Instruments with a Fraunhofer model for data analysis.

[3] = Entry 1, antisolvent 100 wt % water, 0 wt % ethanol, 45 l/h, progesteron solution 50 g per litre ethanol, 12 l/h, Microdyn membrane 1 μm
[4] = Entry 2, antisolvent 85 wt % water, 15 wt % ethanol, 45 l/h, progesteron solution 50 g per litre ethanol, 12 l/h, Microdyn membrane 1 μm
[5] = Entry 3, antisolvent 70 wt % water, 30 wt % ethanol, 45 l/h, progesteron solution 50 g per litre ethanol, 12 l/h, Microdyn membrane 1 μm
[6] = Entry 1, antisolvent flow 45 l/h, 3-ketodesogestrel flow 0.7 l/h, Microdyn membrane pore size 1 μm
[7] = Entry 2, antisolvent flow 45 l/h, 3-ketodesogestrel flow 0.4 l/h, Microdyn membrane pore size 1 μm
[8] = Entry 3, antisolvent flow 45 l/h, 3-ketodesogestrel flow 6.2 l/h, Microdyn membrane pore size 1 μm
[9] = Entry 4, antisolvent flow 90 l/h, 3-ketodesogestrel flow 0.7 l/h, Microdyn membrane pore size 1 μm
[10] = Entry 5, antisolvent flow 90 l/h, 3-ketodesogestrel flow 5.0 l/h, Microdyn membrane pore size 1 μm
[11] = Entry 6, antisolvent flow 45 l/h, 3-ketodesogestrel flow 10 l/h, Microdyn membrane pore size 1 μm
[12] = Entry 7, antisolvent flow 45 l/h, 3-ketodesogestrel flow 42 l/h, Microdyn membrane pore size 1 μm
[13] = Entry 8, antisolvent flow 45 l/h, 3-ketodesogestrel flow 20 l/h, Microdyn membrane pore size 1 μm
[14] = Example 2, 97 g in 5 l ethanol, flow 0.41 l/hr, water antisolvent 45 l/hr, Microdyn membrane 1 μm
[15] = Example 1, 25 wt % NaCl solution 60 l/hr into ethanol antisolvent 50 l/hr, SPG membrane pore-size 1.1 μm
[16] = Example 5, 34 mg tibolone in 1 kg ethanol, 65 l/hr, antisolvent 90 wt % water/10 wt % ethanol, 151/hr, SPG membrane 1.1 μm

Span [1, 3]: 2
d10 [1, 3]: 2
d50 [1, 3]: 7
Span [1, 4]: 1.8
d50 [1, 4]: 12
d10 [1, 5]: 7
d50 [1, 5]: 21
d90 [1, 5]: 43
d90 [2, 3]: 16
d10 [2, 4]: 4
d90 [2, 4]: 25
Span [2, 5]: 1.7
span, in words ([2]; all antisolvent compositions of Table 2): surprisingly small span
SMILES: CC(=O)[C@H]1CC[C@H]2[C@@H]3CCC4=CC(=O)CC[C@]4(C)[C@H]3CC[C@]12C [progesteron, pregn-4-ene-3,20-dione]

Span [1, 6]: 1.6
d10 [1, 6]: 3 µm
d50 [1, 6]: 11 µm
d90 [1, 6]: 21 µm
Span [1, 7]: 1.7
d10 [1, 7]: 3 µm
d90 [1, 7]: 20 µm
Span [1, 8]: 2.5
d10 [1, 8]: 5 µm
d50 [1, 8]: 16 µm
d90 [1, 8]: 45 µm
Span [1, 9]: 1.9
d10 [1, 9]: 4 µm
d50 [1, 9]: 10 µm
d90 [1, 9]: 23 µm
Span [1, 10]: 2.9
d10 [1, 10]: 2 µm
d50 [1, 10]: 7 µm
d90 [1, 10]: 22 µm
Span [1, 11]: 2.8
d10 [1, 11]: 2 µm
d50 [1, 11]: 8 µm
d90 [1, 11]: 24 µm
Span [1, 12]: 1.9
d10 [1, 12]: 12 µm
d50 [1, 12]: 42 µm
d90 [1, 12]: 90 µm
Span [1, 13]: 3
d10 [1, 13]: 2 µm
d50 [1, 13]: 9 µm
d90 [1, 13]: 29 µm
d90 [1, 14]: 20 μm
d50 [2, 7]: 10 µm
Span [2, 14]: 1.7
d10 [2, 14]: 3 μm
d50 [2, 14]: 10 μm
SMILES: C#C[C@]1(O)CC[C@H]2[C@@H]3CCC4=CC(=O)CC[C@@H]4[C@H]3C(=C)C[C@@]21CC [3-ketodesogestrel, (17alfa)-17-hydroxy-13-ethyl-11-methylene-18,19-dinorpregn-4-en-20-yn-3-one]

SMILES: [Cl-].[Na+] [sodium chloride]
Span [1, 15]: 1.5
average crystal size d50 [2, 15]: 40 μm
Span ([2]; Example 1 additional experiment, stirring rod 630 rpm inside membrane, salt solution 40 l/hr, ethanol 50 l/hr): 1.2

SMILES: C#CC1(O)CCC2C3C(CCC21C)C1=C(CC(=O)CC1)C[C@H]3C (stereo partly shown) [tibolone, (7alfa, 17alfa)-17-hydroxy-7-methyl-19-nor-pregn-5(10)-en-20-yn-3-one]
d10 [1, 16]: 3.8 μm
d50 [1, 16]: 18.2 μm
d90 [2, 16]: 51.3 μm
